Data as given in US8629293B2, “Process for the preparation of FE(III) chelates of N,N′-DI(2-hydroxybenzyl)-ethylenediamine-N,N′-diacetic acid and its derivatives” (Przedsiebiorstwo Produkcyjno-Consultingowe Adob SP. Z O.O. …, priority 2009, dated 2014).

What was measured:
Type in all cases: in vivo
[1] = tested on: 10-year old nectarine trees, cultivar "Zephyr" grafted on the GF677 root stock; assay: Field test, testing field No. 1: SPAD index; conditions: 0.9 g of the chelated Fe/tree
Description: (§1) The comparison included two chelate agents for supplementing iron deficiencies: HBED/Fe^3+ as well as the commercially available, highly purified EDDHA/Fe^3+. The studies were carried out on two fields with the soil having an alkaline pH as well as a high concentration of calcium ions. The chelates were applied directly to the soil by means of a dripper immersed in the soil.
10-year old nectarine trees, cultivar “Zephyr” grafted on the GF677 root stock
The chelates were applied at the following concentrations: • EDDHA/Fe^3+: high concentration (0.9 g of the chelated Fe/tree) • HBED/Fe^3+: low concentration (0.45 g of the chelated Fe/tree) • HBED/Fe^3+: high concentration (0.9 g of the chelated Fe/tree) • control trial: without Fe
The chelate solutions of various concentrations were applied in three portions (50%, 30%, and finally 20% of the whole dose, respectively) directly to the ground below the dripper.
The SPAD index was measured approximately every two weeks: on day 14, 29, 44, 61, 88 and 99 after application of the chelates.

[2] = tested on: 7-year old trees of flat peach (Prunus persica var. platycarpa) grafted on the GF677 root stock with visible symptoms of chlorosis; assay: Field test, testing field No. 2: SPAD index of leaves; conditions: 0.9 g of the chelated Fe/tree
Description: as §1
7-year old trees of flat peach (Prunus persica var. platycarpa) grafted on the GF677 root stock with visible symptoms of chlorosis
The chelates were applied at the following concentrations: • EDDHA/Fe^3+: high concentration (0.9 g of the chelated Fe/tree) • HBED/Fe^3+: high concentration (0.9 g of the chelated Fe/tree) • control trial: without Fe
The chelate solutions were dosed directly to the ground below the dripper. In this case, the whole dose of the chelates were applied in one portion. The symptoms of chlorosis were visible at the beginning of the experiment.
The samples for determination of the SPAD index of leaves were taken approximately every two weeks (on day 0, 20, 40 and 63 after application of the chelates).

[3] = tested on: soybean (Glycine max L.) var. Stine 0480; assay: Fertilising of soya in plant growth climatic chamber: plant dry matter
Description: (§2) The experiment was performed using the seeds of soybean (Glycine max L.) var. Stine 0480. A standard seed germination procedure was followed. Before starting the experiment, the seeds were thoroughly washed with water (30 minutes). The clean seeds were placed between two sheets of a cellulose paper soaked with water. The seeds germinated over two days in a climatic chamber at a temperature of 30° C. and a humidity of 60%, without access of light. After that time, the seedlings at a similar stage of development were placed on perforated trays floating over containers containing 10 L of the diluted nutrient solution for four days, followed by next three days using a solution containing micronutrients but without iron. Composition of the nutrient solution was: 1 mM Ca(NO3)2, 0.90 mM KNO3, 0.30 mM MgSO4, 0.10 mM KH2PO4, 2.5 μM MnSO4, 1.0 μM CuSO4, 10 μM ZnSO4, 1.0 μM NiCl2, 1.0 μM CoSO4, 115.5 μM Na2EDTA, 231 μM KOH, 35 μM NaCl, 10 μM H3BO3, 0.05 μM Na2MoO4 and 0.1 mM of N-(2-hydroxyethyl)piperazine-N′-(2-ethanesulfonic acid) sodium salt (HEPES). The pH value was adjusted to 7.5 using 1M KOH. 1-litre pots were filled with soil and sand in a volume ratio of 2:1. The test plants were transplanted into the thus-prepared pots, 3 plants per each pot. The experiment was carried out with adhering to the daily cycle of plant growth: 16 h of day time (30° C., 50% humidity) and 8 h of night time (25° C., 70% humidity).
(§3) Seven days after transplanting the plants into the pots, the symptoms of chlorosis were observed. The further part of the experiment was aimed at comparison of the effectiveness of performance of FeHBED with that of the commercially available FeEDDHA. For this purpose, the solutions of FeHBED and FeEDDHA were prepared, in which the iron isotope ^57Fe was used. The concentrations of ^57Fe in the doses were 0, 1.7, 3.4, 8.4, 16.8, 25.1 and 41.9 μmol of ^57Fe/kg of soil. Each dose was applied in duplicate. Additionally, a blank test (without iron) was performed for three pots.
Table 1 summarises the results of dry matter of above-ground sprouts (leaves and stems) for the plants gathered after every application of iron solutions of various concentration for two samplings.

[4] = tested on: soybean (Glycine max L.) var. Stine 0480; assay: Fertilising of soya in plant growth climatic chamber: SPAD index (leaves greenness); conditions: for The SPAD index, 2nd level of foliage / The SPAD index, 3rd level of foliage: end of experiment
Description: as §2, §3
The SPAD index (a measure of leaves greenness) was determined every two days during the whole experiment.

SMILES | Root dry weight ([3]; dose 1.7 μmol 57Fe/kg of soil) | Sprout dry weight, 1 sampling ([3]; dose 1.7 μmol 57Fe/kg of soil) | Sprout dry weight, 2 sampling ([3]; dose 1.7 μmol 57Fe/kg of soil) | Root dry weight ([3]; dose 3.4 μmol 57Fe/kg of soil) | Sprout dry weight, 1 sampling ([3]; dose 3.4 μmol 57Fe/kg of soil) | Sprout dry weight, 2 sampling ([3]; dose 3.4 μmol 57Fe/kg of soil) | Root dry weight ([3]; dose 8.4 μmol 57Fe/kg of soil) | Sprout dry weight, 1 sampling ([3]; dose 8.4 μmol 57Fe/kg of soil) | Sprout dry weight, 2 sampling ([3]; dose 8.4 μmol 57Fe/kg of soil) | Root dry weight ([3]; dose 16.8 μmol 57Fe/kg of soil) | Sprout dry weight, 1 sampling ([3]; dose 16.8 μmol 57Fe/kg of soil) | Sprout dry weight, 2 sampling ([3]; dose 16.8 μmol 57Fe/kg of soil) | Root dry weight ([3]; dose 25.1 μmol 57Fe/kg of soil) | Sprout dry weight, 1 sampling ([3]; dose 25.1 μmol 57Fe/kg of soil) | Sprout dry weight, 2 sampling ([3]; dose 25.1 μmol 57Fe/kg of soil) | Root dry weight ([3]; dose 41.9 μmol 57Fe/kg of soil) | Sprout dry weight, 1 sampling ([3]; dose 41.9 μmol 57Fe/kg of soil) | Sprout dry weight, 2 sampling ([3]; dose 41.9 μmol 57Fe/kg of soil) | The SPAD index, 2nd level of foliage ([4]; 1.7 μmol of 57Fe/kg of soil) | The SPAD index, 3rd level of foliage ([4]; 1.7 μmol of 57Fe/kg of soil) | also measured
O=C([O-])C(NCCNC(C(=O)[O-])c1ccccc1[O-])c1ccccc1[O-].[Fe+3] (stereo not drawn) [EDDHA/Fe^3+, reference compound] | – | – | – | – | – | – | – | – | – | – | – | – | – | – | – | – | – | – | – | – | The SPAD index of the fructifying branches ([1]; day 14 after application): 36.00; The SPAD index of the non-fructifying branches ([1]; day 14 after application): 35.69; The SPAD index of the fructifying branches ([1]; day 29 after application): 37.00; The SPAD index of the non-fructifying branches ([1]; day 29 after application): 37.77; The SPAD index of the fructifying branches ([1]; day 44 after application): 37.82; The SPAD index of the non-fructifying branches ([1]; day 44 after application): 36.23; The SPAD index of the fructifying branches ([1]; day 61 after application): 37.82; The SPAD index of the non-fructifying branches ([1]; day 61 after application): 35.15; The SPAD index of the fructifying branches ([1]; day 88 after application): 39.09; The SPAD index of the non-fructifying branches ([1]; day 88 after application): 37.38; The SPAD index of the fructifying branches ([1]; day 99 after application): 38.91; The SPAD index of the non-fructifying branches ([1]; day 99 after application): 36.92; ΔSPAD index of leaves ([2]; day 0 after application): 0; ΔSPAD index of leaves ([2]; day 20 after application): 13.00; ΔSPAD index of leaves ([2]; day 40 after application): 17.50; ΔSPAD index of leaves ([2]; day 63 after application): 17.25
O=C(O)CN(CCN(CC(=O)O)Cc1ccccc1O)Cc1ccccc1O [HBED] | 0.33 g/3 plants | 0.73 g/plant | 2.20 g/plant | 0.53 g/3 plants | 0.79 g/plant | 2.83 g/plant | 0.56 g/3 plants | 0.91 g/plant | 2.62 g/plant | 0.51 g/3 plants | 0.72 g/plant | 3.19 g/plant | 0.43 g/3 plants | 0.92 g/plant | 2.66 g/plant | 0.49 g/3 plants | 0.79 g/plant | 2.63 g/plant | 29.58 | 34.09 | Sprout dry weights compared with o,oEDDHA/57Fe3+ ([3]; conclusion from Table 1, all doses): no evident difference in the sprout dry weights; SPAD index compared with o,oEDDHA/57Fe3+ ([4]; both levels of foliage): No significant differences in the values of the SPAD index; The SPAD index, 2nd level of foliage ([4]; 3.4 μmol of 57Fe/kg of soil): 28.75; The SPAD index, 3rd level of foliage ([4]; 3.4 μmol of 57Fe/kg of soil): 35.91; The SPAD index, 2nd level of foliage ([4]; 8.4 μmol of 57Fe/kg of soil): 42.50; The SPAD index, 3rd level of foliage ([4]; 8.4 μmol of 57Fe/kg of soil): 43.18; The SPAD index, 2nd level of foliage ([4]; 16.8 μmol of 57Fe/kg of soil): 27.92; The SPAD index, 3rd level of foliage ([4]; 16.8 μmol of 57Fe/kg of soil): 37.73; The SPAD index, 2nd level of foliage ([4]; 25.1 μmol of 57Fe/kg of soil): 27.92; The SPAD index, 3rd level of foliage ([4]; 25.1 μmol of 57Fe/kg of soil): 37.73; The SPAD index, 2nd level of foliage ([4]; 41.9 μmol of 57Fe/kg of soil): 29.17; The SPAD index, 3rd level of foliage ([4]; 41.9 μmol of 57Fe/kg of soil): 43.64
O=C([O-])C(NCCNC(C(=O)[O-])c1ccccc1[O-])c1ccccc1[O-].[Fe+3] (stereo not drawn) [o,oEDDHA, reference compound] | 0.44 g/3 plants | 0.88 g/plant | 2.08 g/plant | 0.51 g/3 plants | 0.79 g/plant | 2.92 g/plant | 0.49 g/3 plants | 0.87 g/plant | 2.03 g/plant | 0.53 g/3 plants | 0.84 g/plant | 2.56 g/plant | 0.59 g/3 plants | 0.81 g/plant | 2.73 g/plant | 0.49 g/3 plants | 0.86 g/plant | 3.20 g/plant | 37.92 | 43.18 | The SPAD index, 2nd level of foliage ([4]; 3.4 μmol of 57Fe/kg of soil): 34.58; The SPAD index, 3rd level of foliage ([4]; 3.4 μmol of 57Fe/kg of soil): 40.00; The SPAD index, 2nd level of foliage ([4]; 8.4 μmol of 57Fe/kg of soil): 31.67; The SPAD index, 3rd level of foliage ([4]; 8.4 μmol of 57Fe/kg of soil): 36.82; The SPAD index, 2nd level of foliage ([4]; 16.8 μmol of 57Fe/kg of soil): 32.92; The SPAD index, 3rd level of foliage ([4]; 16.8 μmol of 57Fe/kg of soil): 40.46; The SPAD index, 2nd level of foliage ([4]; 25.1 μmol of 57Fe/kg of soil): 37.08; The SPAD index, 3rd level of foliage ([4]; 25.1 μmol of 57Fe/kg of soil): 37.73; The SPAD index, 2nd level of foliage ([4]; 41.9 μmol of 57Fe/kg of soil): 38.75; The SPAD index, 3rd level of foliage ([4]; 41.9 μmol of 57Fe/kg of soil): 44.55
